pEC50: −log10 of the molar value. “Also recorded” adds a separate entry of the source.
Legend:
[1] = biological target: human TMEM16A (TMEM16Aabc variant) (Homo sapiens, UniProt Q5XXA6, DEL476-501, form not given); assay: Automated whole-cell patch clamp (Qpatch) TMEM16A potentiator assay in FRT cells stably expressing human TMEM16A; assay type: cell-based
Procedure, shortened: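 FRT cells stably expressing human TMEM16Aabc were recorded by automated whole-cell patch clamp, with intracellular Ca2+ buffered for ~EC20 activation, holding −70 mV and step to +70 mV at 0.05 Hz. Compound was applied cumulatively, 5 min per concentration. Peak current increase as % of baseline was fitted to give EC50 and maximum efficacy.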

[2] = Solubility assessment of Compound 36 Form A in solvents at 50° C.; assay type: physicochemical; parameters: key to Solubility (dissolution in solvent): ✓: material dissolved at 50° C.; x: material did not dissolve; ?: partial dissolution
Method: Compound 36 (Form 1, approximately 30 mg) was weighed into 2 ml glass vials and was treated with aliquots of solvent. The samples were stirred at 50° C., 400 rpm, for approximately 10 minutes between addition of aliquots of solvent. Solvent was added until a clear solution was formed or a maximum of 60 volumes (1.8 ml) of solvent was reached.
Samples that were solutions (or close to dissolution, sample in DCM) were cooled to 5° C. at 0.1° C./min and were stirred overnight. After cooling, the samples that contained solids were filtered using PTFE frits, dried under suction for approximately 30 minutes and were analysed by XRPD.
Samples that were suspensions in 60 volumes of solvent were matured (shaken in cycles of 4 hours at 50° C./4 hours at RT). After 5 days, samples were filtered using PTFE frits, dried under suction for approximately 30 minutes and were analysed by XRPD.

[3] = as above; assay type: physicochemical; conditions: acetone and ethanol
[4] = Competitive suspension equilibration of all known forms of Compound 36 in surfactant buffers; assay type: physicochemical; conditions: 20° C.
Method: Equimolar composites of the forms of Compound 36 were stirred in each surfactant buffer configuration as follows.
Equimolar admixtures of each form and the amorphous phase were prepared and suspended in the appropriate surfactant buffer configuration at the dose relevant concentration of 5 mg/ml and stirred at 20° C. for 13 days. Stirring was suspended, the slurries were centrifuged, supernatant decanted and the pellets were dried under reduced pressure and analysed.
All known forms of Compound 36 were combined in approximately equimolar proportions. Each composite was suspended in Tween/Span and Tween 80 buffers (5 mg/ml concentration) in two vessels and stirred at 20° C. […] Therefore, order of succession in formulation vehicles under ambient storage supported Form A as the preferred form.

[5] = Storage of forms of Compound 36 at 40° C./75% RH in open vials, XRPD; assay type: physicochemical; conditions: open vial, 14 days (2 weeks)
Method: Form A was stored at 40° C./75% RH, in an open vial. […] Therefore, Form A is stable to exposure to elevated temperature and humidity for up to 2 weeks and no evidence of a hydrated form was observed.
One sample of each of the new forms (Forms B, C, D, E, E+extra peaks, F, G and H) was analysed by ^1H NMR, TGA, DSC and stored at 40° C./75% RH. Results are summarised in Table E with Form A for comparison.

Chain of human TMEM16A (TMEM16Aabc variant) (Q5XXA6 with tags, fused parts or gaps DEL476-501): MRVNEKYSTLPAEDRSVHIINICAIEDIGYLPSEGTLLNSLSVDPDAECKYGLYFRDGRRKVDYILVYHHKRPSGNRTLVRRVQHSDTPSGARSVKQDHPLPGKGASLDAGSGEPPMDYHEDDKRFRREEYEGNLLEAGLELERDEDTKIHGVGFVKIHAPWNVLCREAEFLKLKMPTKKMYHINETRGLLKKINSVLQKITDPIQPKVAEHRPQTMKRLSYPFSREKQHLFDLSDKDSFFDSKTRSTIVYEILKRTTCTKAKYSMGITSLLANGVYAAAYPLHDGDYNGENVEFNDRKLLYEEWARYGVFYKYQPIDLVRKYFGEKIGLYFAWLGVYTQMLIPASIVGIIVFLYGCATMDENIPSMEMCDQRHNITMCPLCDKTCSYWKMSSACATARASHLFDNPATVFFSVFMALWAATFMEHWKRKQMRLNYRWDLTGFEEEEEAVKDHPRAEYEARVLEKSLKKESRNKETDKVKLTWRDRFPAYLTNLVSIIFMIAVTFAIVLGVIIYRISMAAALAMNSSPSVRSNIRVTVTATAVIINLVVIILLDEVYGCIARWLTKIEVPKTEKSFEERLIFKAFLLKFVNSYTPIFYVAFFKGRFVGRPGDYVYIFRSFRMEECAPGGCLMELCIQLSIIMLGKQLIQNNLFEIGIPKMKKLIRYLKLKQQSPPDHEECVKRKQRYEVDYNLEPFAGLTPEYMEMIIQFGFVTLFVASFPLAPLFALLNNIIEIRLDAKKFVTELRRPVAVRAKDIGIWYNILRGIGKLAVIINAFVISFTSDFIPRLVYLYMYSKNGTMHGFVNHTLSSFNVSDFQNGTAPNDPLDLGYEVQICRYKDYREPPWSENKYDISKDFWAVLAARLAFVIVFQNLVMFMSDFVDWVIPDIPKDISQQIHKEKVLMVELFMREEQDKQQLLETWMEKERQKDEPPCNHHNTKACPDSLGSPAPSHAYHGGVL

Compound: C#CC(C)(C)NC(=O)c1cc(NC(=O)Cc2cc(Cl)ccc2O)ccn1 [Example 36, 4-[[2-(5-Chloro-2-hydroxy-phenyl)acetyl]amino]-N-(1,1-dimethylprop-2-ynyl)pyridine-2-carboxamide]
- % Potentiation @ 3.33 μM Avg ([1]; 3.33 μM solution of test compound, percentage increase of baseline TMEM16A current): 199%
- pEC50 ([1]; calculated EC50, Qpatch TMEM16A current at +70 mV): 7.70
- Solubility (in words) ([2]; acetonitrile/water mixtures): freely soluble
- Solubility (dissolution in anti-solvents) ([2]; n-heptane, water and TBME, up to 60 volumes, 50° C.): no observable dissolution
- Solubility (relative, in words) [3]: most soluble
- Form produced by competitive suspension equilibration (XRPD) ([4]; Tween/Span and Tween 80 buffers, 5 mg/ml, 13 days): consistent with Form A

Compound: C#CC(C)(C)NC(=O)c1cc(NC(=O)Cc2cc(Cl)ccc2O)ccn1 [Compound 36 Form A, 4-[[2-(5-Chloro-2-hydroxy-phenyl)acetyl]amino]-N-(1,1-dimethylprop-2-ynyl)pyridine-2-carboxamide]
- Solubility (dissolution in solvent) ([2]; 2-Propanol, 5 vol, 50° C.): x
- Solubility (dissolution in solvent) ([2]; 2-Propanol, 10 vol, 50° C.): x
- Solubility (dissolution in solvent) ([2]; 2-Propanol, 30 vol, 50° C.): ✓
- Solubility (dissolution in solvent) ([2]; 5% aqueous ACN, 5 vol, 50° C.): x
- Solubility (dissolution in solvent) ([2]; 5% aqueous ACN, 20 vol, 50° C.): ✓
- Solubility (dissolution in solvent) ([2]; 20% aqueous ACN, 5 vol, 50° C.): x
- Solubility (dissolution in solvent) ([2]; 20% aqueous ACN, 10 vol, 50° C.): ✓
- Solubility (dissolution in solvent) ([2]; Acetone, 5 vol, 50° C.): ✓
- Solubility (dissolution in solvent) ([2]; Acetone, 10 vol, 50° C.): ✓
- Solubility (dissolution in solvent) ([2]; Acetonitrile, 5 vol, 50° C.): x
- Solubility (dissolution in solvent) ([2]; Acetonitrile, 10 vol, 50° C.): x
- Solubility (dissolution in solvent) ([2]; Acetonitrile, 30 vol, 50° C.): ✓
- Solubility (dissolution in solvent) ([2]; Dichloromethane, 5 vol, 50° C.): x
- Solubility (dissolution in solvent) ([2]; Dichloromethane, 10 vol, 50° C.): x
- Solubility (dissolution in solvent) ([2]; Dichloromethane, 20 vol, 50° C.): x
- Solubility (dissolution in solvent) ([2]; Dichloromethane, 30 vol, 50° C.): x
- Solubility (dissolution in solvent) ([2]; Ethanol, 5 vol, 50° C.): x
- Solubility (dissolution in solvent) ([2]; Ethanol, 10 vol, 50° C.): ✓
- Solubility (dissolution in solvent) ([2]; Ethyl Acetate, 5 vol, 50° C.): x
- Solubility (dissolution in solvent) ([2]; Ethyl Acetate, 10 vol, 50° C.): x
- Solubility (dissolution in solvent) ([2]; Ethyl Acetate, 20 vol, 50° C.): ✓
- Solubility (dissolution in solvent) ([2]; Tetrahydrofuran, 5 vol, 50° C.): x
- Solubility (dissolution in solvent) ([2]; Tetrahydrofuran, 10 vol, 50° C.): x
- Solubility (dissolution in solvent) ([2]; Tetrahydrofuran, 20 vol, 50° C.): ✓
- Solubility (dissolution in solvent) ([2]; Water, 5 vol, 50° C.): x
- Solubility (dissolution in solvent) ([2]; Water, 10 vol, 50° C.): x
- Solubility (dissolution in solvent) ([2]; Water, 20 vol, 50° C.): x
- Solubility (dissolution in solvent) ([2]; Water, 30 vol, 50° C.): x
- Solubility (dissolution in solvent) ([2]; Water, 40 vol, 50° C.): x
- Solubility (dissolution in solvent) ([2]; Water, 50 vol, 50° C.): x
- Solubility (dissolution in solvent) ([2]; Water, 60 vol, 50° C.): x
- Solubility (dissolution in solvent) ([2]; n-Heptane, 5 vol, 50° C.): x
- Solubility (dissolution in solvent) ([2]; n-Heptane, 10 vol, 50° C.): x
- Solubility (dissolution in solvent) ([2]; n-Heptane, 20 vol, 50° C.): x
- Solubility (dissolution in solvent) ([2]; n-Heptane, 30 vol, 50° C.): x
- Solubility (dissolution in solvent) ([2]; n-Heptane, 40 vol, 50° C.): x
- Solubility (dissolution in solvent) ([2]; n-Heptane, 50 vol, 50° C.): x
- Solubility (dissolution in solvent) ([2]; n-Heptane, 60 vol, 50° C.): x
- Solubility (dissolution in solvent) ([2]; tert-Butylmethyl Ether, 5 vol, 50° C.): x
- Solubility (dissolution in solvent) ([2]; tert-Butylmethyl Ether, 10 vol, 50° C.): x
- Solubility (dissolution in solvent) ([2]; tert-Butylmethyl Ether, 20 vol, 50° C.): x
- Solubility (dissolution in solvent) ([2]; tert-Butylmethyl Ether, 30 vol, 50° C.): x
- Solubility (dissolution in solvent) ([2]; tert-Butylmethyl Ether, 40 vol, 50° C.): x
- Solubility (dissolution in solvent) ([2]; tert-Butylmethyl Ether, 50 vol, 50° C.): x
- Solubility (dissolution in solvent) ([2]; tert-Butylmethyl Ether, 60 vol, 50° C.): x
- Form produced by competitive suspension equilibration (thermodynamic stability) ([4]; TWEEN 80 (0.5 mg/ml) or TWEEN 20 (0.5 mg/ml)/SPAN 20 (0.05 mg/ml), 7 to 10 days): most thermodynamically stable form
- Storage at 40° C./75% RH (change of form by XRPD) [5]: no change in form was detected; also recorded: No change (14 days)

Source: patent US20200361871A1 (Enterprise Therapeutics Ltd., priority 2018, published 2020)
